Laboratory results as given in patent publication US7611729B2, “Dosage forms having prolonged active ingredient release” (Lunamed AG, priority 2001, dated 2009).

System: adenocarcinoma of the prostate
Experiment: Human test results: oral treatment of prostate cancer patients with slow release tablets
Assay type: in vivo
Details: general statement
Protocol: Diseases that can be beneficially influenced by the present dosage form include in particular benign prostate hyperplasy, cancer, leukemias, cystic fibrosis, AIDS, kidney and liver diseases, thalassemia and urea cycle disorders. For example, the treatment of an adenocarcinoma of the prostate can be carried out by administering twice daily, e.g. in the morning and evening, a pharmaceutical tablet formulation containing 250 mg of sodium 4-phenylbutyrate. […] Treatment may be continued for several month or years until a satisfactory effect is observed or the patient is total free of the disease.
Following are descriptions of treatments and test results obtained from human patients.
This patient presented on Apr. […] Because of progressive bone pains they underwent bilateral orchiectomy in February 1996. They became free of pain until November 1998 when they again suffered bone pains mainly in their back. They were than treated orally twice daily with 250 mg of sodium phenylbutyrate retard tablets according to Example 1. Four weeks later they were free of pain.
This patient presented in March 1997 with a pathological fracture of the 8th thoracic vertebra caused by metastatic destruction. The multiple biopsies of the slightly enlarged prostate was positive for adenocarcinoma on both sides. […] On Apr. 10, 1997 they underwent bilateral orchidectomy. […]

In the case of `O=C([O-])CCCc1ccccc1.[Na+]` [sodium 4-phenylbutyrate], the “therapeutic effect (pains)” value (adenocarcinoma of the prostate, tablet with 250 mg twice daily, after treatment of about one month) is reported as “pains disappear” and the side effects (long period of treatment) is reported as “no side effects”.
